Among the test systems are UACC-257 melanoma; HL-60(TB) leukemia; ACHN renal; OVCAR-3 ovarian; SNB-19 CNS; UO-31 renal; HCC-2998 colon; NCI-H460 lung; HT29 colon; K-562 leukemia.
Test in all cases: inhibition of tumour cell growth, NCI panel, 48 h

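Interpolation was linear, between the two tested concentrations surrounding the appropriate level; five concentrations were tested over 48 hours in 96-well plates. At the GI50, growth is halved. TGI: total growth inhibition.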 Bounds are passed on as bounds.

For the compound `CCN1C(=O)N(CC)C2C1NN=c1s/c(=C\c3ccc([N+](=O)[O-])cc3)c(=O)n12` (stereo not given), the GI50 in the assay with UACC-257 melanoma is 1.17 µM; with HL-60(TB) leukemia, 0.31 µM; in the assay with ACHN renal, 0.587 µM; with OVCAR-3 ovarian, 0.283 µM; in the assay with SNB-19 CNS it was 0.683 µM; in the assay with UO-31 renal it was 0.903 µM. Further, the GI50 is 1.61 µM in the assay on HCC-2998 colon, 0.369 µM in the assay on NCI-H460 lung, 0.375 µM with HT29 colon and 0.35 µM in the assay with K-562 leukemia. Moreover, the TGI with UACC-257 melanoma was 70 µM; in the assay with HL-60(TB) leukemia, 1.12 µM; in the assay on ACHN renal, > 100 µM; in the assay with OVCAR-3 ovarian, 0.842 µM; with SNB-19 CNS, > 84.3 µM; with UO-31 renal it was > 100 µM. For the same compound, the TGI in the assay with HCC-2998 colon, in the assay with NCI-H460 lung, in the assay with HT29 colon and with K-562 leukemia was > 100 µM throughout.

As to `Cc1ccc(NC(=O)CCC(=O)C2CC(=O)CCC2=O)cc1C` (stereo not given), the TGI in the assay with UACC-257 melanoma, in the assay with HL-60(TB) leukemia, in the assay on ACHN renal, in the assay on OVCAR-3 ovarian, in the assay with SNB-19 CNS and in the assay with UO-31 renal was > 100 µM throughout. Further, the TGI in the assay with HCC-2998 colon, in the assay on NCI-H460 lung, in the assay on HT29 colon and in the assay on K-562 leukemia was > 100 µM in each case.

For the compound `CC1OC(OC2C(OC3CCC4(C)C(CCC5(C)C4CC=C4C6CC(C)(C)CCC6(CO)C(O)CC45C)C3(C)C)OC(C(=O)O)C(OC3OC(COC4OC(CO)C(O)C(O)C4O)C(O)C(O)C3O)C2O)C(O)C(O)C1O` (stereo not given), the GI50 is 13.2 µM with UACC-257 melanoma; 1.5 µM in the assay with HL-60(TB) leukemia; 4.81 µM in the assay with ACHN renal; 12.7 µM in the assay on OVCAR-3 ovarian; 13.9 µM in the assay on SNB-19 CNS; 5.45 µM in the assay with UO-31 renal. The GI50 with HCC-2998 colon is 1.73 µM; in the assay with NCI-H460 lung, 12.1 µM; in the assay on HT29 colon, 11.9 µM; with K-562 leukemia, 3.09 µM. Further, the TGI is 26.3 µM in the assay with UACC-257 melanoma; 3.53 µM in the assay with HL-60(TB) leukemia; 16.8 µM in the assay with ACHN renal; 24.7 µM with OVCAR-3 ovarian; 28 µM with SNB-19 CNS; 15.9 µM with UO-31 renal. Also, the TGI with HCC-2998 colon is 4.45 µM; in the assay with NCI-H460 lung it was 24.5 µM; in the assay on HT29 colon, 25.5 µM; in the assay on K-562 leukemia, 15.4 µM.

The values are drawn from PubChem BioAssay (NCI).
